{"source": "patent US20080207685A1", "about": "“Heterocyclic Compounds As Modulators Of Peroxisome Proliferator Activated Receptors, Useful For The Treatment And/Or Prevention Of Disorders Modulated By A Ppar” (Eli Lilly And Company, priority 2003, published 2008)", "system": "HuapoAI transgenic mice", "experiment": "Evaluation of triglyceride and cholesterol level in HuapoAI transgenic mice", "type": "in vivo", "conditions": "100 mg/kg oral gavage daily for 7 days; vehicle about 140 to 180 mg/dl", "procedure": "Five to six week old male mice, transgenic for human apoAI [C57B1/6-tgn(apoa1)1rub, Jackson Laboratory, Bar Harbor, Me.] are housed five per cage (10″×20″×8″ with aspen chip bedding) with food (Purina 5001) and water available at all times. After an acclimation period of 2 weeks, animals are individually identified by ear notches, weighed and assigned to groups based on body weight. Beginning the following morning, mice are dosed daily by oral gavage for 7 days using a 20 gauge, 1½″ curved disposable feeding needle. Treatments are test compounds (30 mg/kg), a positive control (fenofibrate, 100 mg/kg) or vehicle [1% carboxymethylcellulose (w/v)/0.25% Tween80 (w/v); 0.2 ml/mouse]. […]\nThe animals dosed with vehicle have average triglycerides values of about 60 to 80 mg/dl, which are reduced by the positive control fenofibrate (33-58 mg/dl with a mean reduction of 37%). […] Test compounds evaluated in terms of percent increase in the area under the curve. […]\nGlucose is measured […] by using commercially purchased reagents (Sigma #315-500). […] The absorbance of the dye produced is linearly related to the analyte in the sample. […] Standards (Sigma #339-11, Sigma #16-11, and Sigma #CCO0534 for glucose, triglycerides and total cholesterol, respectively), quality control plasma (Sigma #A2034), and samples (2 or 5 μl/well) are measured in duplicate using 200 μl of reagent. […]"}
{"compound": "CC(C)OC(=O)C(C)(C)Oc1ccc(C(=O)c2ccc(Cl)cc2)cc1", "note": "[fenofibrate]", "values": [{"measurement": "average total serum cholesterol values", "result": "190 to 280", "unit": "mg/dL"}]}
